# Experiment: Trial 2 (France): blinded randomised field trial in weaned piglets, weight gain, feed intake and feed conversion ratio versus in-feed colistin
# Type: in vivo
# Protocol: Aim: The objective of this study was to compare the feed conversion ratios of piglets administered a single dose of my formulation with in feed colistin, an antibiotic.
# Study Outline: This study was a blinded, controlled, randomised field trial comparing three parallel groups of piglets, (n=89 per group): 1. Colistin; 2. My formulation; and 3. No treatment. In this study, whole litters are randomised to receive different treatments, so litters are treated on a whole litter basis.
# Weaning on this farm occurs in 2 stages. In stage 1, piglets are weaned by removing the sow (at day-5). Then on day 0, piglets are moved to their weaning pen.
# At day-5, Group 1 piglets were administered colistin (9 kg antibiotic premix per Ton of feed) in pre-starter feed for 14 days (day-5 to day 9). The other two groups were administered pre-starter feed alone. On day 0 (5 days post weaning), when piglets are moved to their weaner pens, Group 2 piglets received a single dose of my formulation. Group 3 piglets were untreated.
# Analysis: As Per Study 1.
# [1] = pre-starter phase (d-5 to d9), 6 pens
substance,measurement,setting,value
colistin,Average Daily Weight gain,Post weaning,377 ± 82 g
same,Average Daily Weight gain,Post weaning and fattening (overall),664 ± 67 g
same,Average Daily Weight gain,Pre-starter (d -5 to d 9),167 ± 67 g
same,Average Daily Weight gain,Starter,505 ± 110 g
same,"Feed Conversion Ratio, Arithmetic Mean",[1],2.71
same,"Feed Conversion Ratio, Median",[1],2.59
same,"Feed Conversion Ratio, Min-Max",[1],1.75-3.42
same,"Feed intake, Arithmetic Mean",[1],417 g
same,"Feed intake, Min-Max",[1],358 to 479 g
